Measurements taken from US11753445B2, “Therapeutic peptides” (COHBAR, INC., priority 2016, dated 2023).
Peptide text beside a SMILES is read from it.

Tested on: 3T3-L1 Adipocytes
Experiment: Free fatty acid levels in cultured mouse 3T3-L1 adipocytes, isoproterenol stimulated (Example 2)
Assay type: cell-based
Conditions: test peptides 25 μM; isoproterenol 1 nM
Outline: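 3T3-L1 cells differentiated 12–17 days into adipocytes, then exposed to test peptides at 25 μM final for 18–20 h, then 1 h, then 3 h with isoproterenol (1 nM) at 37 °C. Free fatty acids in the medium measured colorimetrically at 540 nm, corrected for untreated background and expressed relative to isoproterenol-only cells.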

First: Ac-MRWQEEGYIFYPRKLR-NH2 [compound 187]
Second: H-MRWQEMGYIFYPRELR-OH [compound 180]
The “Free Fatty Acid Levels in 3T3-L1 Adipocytes Expressed as a Percent of Isoproterenol Control: Percent of Control Value” of the first is higher: 98.9% for the first, 47.0% for the second.

Going from `CC[C@H](C)[C@H](NC(=O)[C@H](Cc1ccc(O)cc1)NC(=O)CNC(=O)[C@H](CCSC)NC(=O)[C@H](CCC(=O)O)NC(=O)[C@H](CCC(N)=O)NC(=O)[C@H](Cc1c[nH]c2ccccc12)NC(=O)[C@H](CCCNC(=N)N)NC(=O)[C@H](CCSC)NC(C)=O)C(=O)N[C@@H](Cc1ccccc1)C(=O)N[C@@H](Cc1ccc(O)cc1)C(=O)N1CCC[C@H]1C(=O)N[C@H](C)C(=O)N[C@@H](CCCCN)C(=O)N[C@@H](CC(C)C)C(=O)N[C@@H](CCCNC(=N)N)C(N)=O` [compound 164] (HELM PEPTIDE1{[ac].M.R.W.Q.E.M.G.Y.I.F.Y.P.[dA].K.L.R.[am]}$$$$V2.0) to `CC[C@H](C)[C@H](NC(=O)[C@H](Cc1ccc(O)cc1)NC(=O)[C@@H](C)NC(=O)[C@H](CCSC)NC(=O)[C@H](CCC(=O)O)NC(=O)[C@H](CCC(N)=O)NC(=O)[C@H](Cc1c[nH]c2ccccc12)NC(=O)[C@H](CCCNC(=N)N)NC(=O)[C@H](CCSC)NC(C)=O)C(=O)N[C@@H](Cc1ccccc1)C(=O)N[C@@H](Cc1ccc(O)cc1)C(=O)N1CCC[C@H]1C(=O)N[C@@H](CCCNC(=N)N)C(=O)N[C@@H](CCCCN)C(=O)N[C@@H](CC(C)C)C(=O)N[C@@H](CCCNC(=N)N)C(N)=O` [compound 88] (HELM PEPTIDE1{[ac].M.R.W.Q.E.M.[dA].Y.I.F.Y.P.R.K.L.R.[am]}$$$$V2.0), the “Free Fatty Acid Levels in 3T3-L1 Adipocytes Expressed as a Percent of Isoproterenol Control: Percent of Control Value” falls from 77.2% to 75.1%.

First: CC[C@H](C)[C@H](NC(=O)[C@H](Cc1ccc(O)cc1)NC(=O)CNC(=O)[C@H](C)NC(=O)[C@H](CCC(=O)O)NC(=O)[C@H](CCC(N)=O)NC(=O)[C@H](Cc1c[nH]c2ccccc12)NC(=O)[C@H](CCCNC(=N)N)NC(=O)[C@@H](N)CCC(=O)O)C(=O)N[C@@H](Cc1ccccc1)C(=O)N[C@@H](Cc1ccc(O)cc1)C(=O)N1CCC[C@H]1C(=O)N[C@@H](CCCNC(=N)N)C(=O)N[C@@H](CCCCN)C(=O)N[C@@H](CC(C)C)C(=O)N[C@H](C)C(=O)O [compound 234] (HELM PEPTIDE1{E.R.W.Q.E.A.G.Y.I.F.Y.P.R.K.L.[dA]}$$$$V2.0)
Second: Ac-LKWQEMGYIFYPRKRL-NH2 [compound 115]
The “Free Fatty Acid Levels in 3T3-L1 Adipocytes Expressed as a Percent of Isoproterenol Control: Percent of Control Value” of the first is lower: 73.8% for the first, 83.4% for the second.

Compared with Ac-MRWQEMAYIFYPRKLR-NH2 [compound 28], H-MRWQEMGYEFYPRKLR-OH [compound 175] is higher in “Free Fatty Acid Levels in 3T3-L1 Adipocytes Expressed as a Percent of Isoproterenol Control: Percent of Control Value”: 35.5% for the first, 50.6% for the second.

First: Ac-MRWQEMGYIFYPRKLK-NH2 [compound 130]
Second: H-MRWQEMGYIFYPRRLR-OH [compound 125]
The “Free Fatty Acid Levels in 3T3-L1 Adipocytes Expressed as a Percent of Isoproterenol Control: Percent of Control Value” of the first is higher: 85.4% for the first, 50.2% for the second.

Compared with `CC[C@H](C)[C@H](NC(=O)[C@@H](C)NC(=O)CNC(=O)[C@H](CCSC)NC(=O)[C@H](CCC(=O)O)NC(=O)[C@H](CCC(N)=O)NC(=O)[C@H](Cc1c[nH]c2ccccc12)NC(=O)[C@H](CCCNC(=N)N)NC(=O)[C@@H](N)CCSC)C(=O)N[C@@H](Cc1ccccc1)C(=O)N[C@@H](Cc1ccc(O)cc1)C(=O)N1CCC[C@H]1C(=O)N[C@@H](CCCNC(=N)N)C(=O)N[C@@H](CCCCN)C(=O)N[C@@H](CC(C)C)C(=O)N[C@@H](CCCNC(=N)N)C(=O)O` [compound 143] (HELM PEPTIDE1{M.R.W.Q.E.M.G.[dA].I.F.Y.P.R.K.L.R}$$$$V2.0), `CC[C@H](C)[C@H](NC(=O)[C@H](Cc1ccc(O)cc1)NC(=O)CNC(=O)[C@H](CCSC)NC(=O)[C@H](CCC(=O)O)NC(=O)[C@H](CCC(N)=O)NC(=O)[C@H](Cc1c[nH]c2ccccc12)NC(=O)[C@H](CCCNC(=N)N)NC(=O)[C@@H](C)N)C(=O)N[C@@H](Cc1ccccc1)C(=O)N[C@@H](Cc1ccc(O)cc1)C(=O)N1CCC[C@H]1C(=O)N[C@@H](CCCNC(=N)N)C(=O)N[C@@H](CCCCN)C(=O)N[C@@H](CC(C)C)C(=O)N[C@@H](CCCNC(=N)N)C(=O)O` [compound 136] (HELM PEPTIDE1{[dA].R.W.Q.E.M.G.Y.I.F.Y.P.R.K.L.R}$$$$V2.0) is lower in “Free Fatty Acid Levels in 3T3-L1 Adipocytes Expressed as a Percent of Isoproterenol Control: Percent of Control Value”: 64.5% for the first, 44.2% for the second.

Going from Ac-MEWQEMGYIFYPRKLR-NH2 [compound 184] to Ac-ERWQEMGYIFYPRKLR-NH2 [compound 183], the “Free Fatty Acid Levels in 3T3-L1 Adipocytes Expressed as a Percent of Isoproterenol Control: Percent of Control Value” falls from 97.1% to 81.6%.

Compared with `CC[C@H](C)[C@H](NC(=O)[C@H](Cc1ccc(O)cc1)NC(=O)CNC(=O)[C@H](CCSC)NC(=O)[C@H](CCC(=O)O)NC(=O)[C@H](CCC(N)=O)NC(=O)[C@H](Cc1c[nH]c2ccccc12)NC(=O)[C@H](CCCNC(=N)N)NC(=O)[C@@H](N)CCSC)C(=O)N[C@H](C)C(=O)N[C@@H](Cc1ccc(O)cc1)C(=O)N1CCC[C@H]1C(=O)N[C@@H](CCCNC(=N)N)C(=O)N[C@@H](CCCCN)C(=O)N[C@@H](CC(C)C)C(=O)N[C@@H](CCCNC(=N)N)C(=O)O` [compound 145] (HELM PEPTIDE1{M.R.W.Q.E.M.G.Y.I.[dA].Y.P.R.K.L.R}$$$$V2.0), Ac-LKWQEMGYIFYPRKLR-NH2 [compound 112] is higher in “Free Fatty Acid Levels in 3T3-L1 Adipocytes Expressed as a Percent of Isoproterenol Control: Percent of Control Value”: 50.2% for the first, 90.5% for the second.

Going from `CC[C@H](C)[C@H](NC(=O)[C@H](Cc1ccc(O)cc1)NC(=O)[C@@H](C)NC(=O)[C@H](CCSC)NC(=O)[C@H](CCC(=O)O)NC(=O)[C@H](CCC(N)=O)NC(=O)[C@H](Cc1c[nH]c2ccccc12)NC(=O)[C@H](CCCNC(=N)N)NC(=O)[C@@H](N)CCSC)C(=O)N[C@@H](Cc1ccccc1)C(=O)N[C@@H](Cc1ccc(O)cc1)C(=O)N1CCC[C@H]1C(=O)N[C@@H](CCCNC(=N)N)C(=O)N[C@@H](CCCCN)C(=O)N[C@@H](CC(C)C)C(=O)N[C@@H](CCCNC(=N)N)C(=O)O` [compound 142] (HELM PEPTIDE1{M.R.W.Q.E.M.[dA].Y.I.F.Y.P.R.K.L.R}$$$$V2.0) to `CC[C@H](C)[C@H](NC(=O)[C@H](Cc1ccc(O)cc1)NC(=O)CNC(=O)[C@H](CCSC)NC(=O)[C@H](CCC(=O)O)NC(=O)[C@@H](C)NC(=O)[C@H](Cc1c[nH]c2ccccc12)NC(=O)[C@H](CCCNC(=N)N)NC(=O)[C@H](CCSC)NC(C)=O)C(=O)N[C@@H](Cc1ccccc1)C(=O)N[C@@H](Cc1ccc(O)cc1)C(=O)N1CCC[C@H]1C(=O)N[C@@H](CCCNC(=N)N)C(=O)N[C@@H](CCCCN)C(=O)N[C@@H](CC(C)C)C(=O)N[C@@H](CCCNC(=N)N)C(N)=O` [compound 155] (HELM PEPTIDE1{[ac].M.R.W.[dA].E.M.G.Y.I.F.Y.P.R.K.L.R.[am]}$$$$V2.0), the “Free Fatty Acid Levels in 3T3-L1 Adipocytes Expressed as a Percent of Isoproterenol Control: Percent of Control Value” rises from 31.9% to 90.1%.

First: H-MRWQEMGYIEYPRKLR-OH [compound 176]
Second: CC[C@H](C)[C@H](NC(=O)[C@H](Cc1ccc(O)cc1)NC(=O)CNC(=O)[C@H](CCSC)NC(=O)[C@H](CCC(=O)O)NC(=O)[C@H](CCC(N)=O)NC(=O)[C@H](Cc1c[nH]c2ccccc12)NC(=O)[C@H](CCCNC(=N)N)NC(=O)[C@@H](N)CCSC)C(=O)N[C@@H](Cc1ccccc1)C(=O)N[C@@H](Cc1ccc(O)cc1)C(=O)N1CCC[C@H]1C(=O)N[C@@H](CCCNC(=N)N)C(=O)N[C@@H](CCCCN)C(=O)NC(CC)(CC)C(=O)N[C@@H](CCCNC(=N)N)C(N)=O [compound 200] (HELM PEPTIDE1{M.R.W.Q.E.M.G.Y.I.F.Y.P.R.K.[CCC(CC)(N[*:1])C(=O)[*:2]].R.[am]}$$$$V2.0)
The “Free Fatty Acid Levels in 3T3-L1 Adipocytes Expressed as a Percent of Isoproterenol Control: Percent of Control Value” of the first is lower: 57.0% for the first, 80.2% for the second.

Compared with H-MRWNEMGYIFYPRKLR-OH [compound 127], Ac-MRWQEMGYIFYPAKLR-NH2 [compound 34] is higher in “Free Fatty Acid Levels in 3T3-L1 Adipocytes Expressed as a Percent of Isoproterenol Control: Percent of Control Value”: 55.6% for the first, 70.7% for the second.

Compared with H-MRWQEMGEIFYPRKLR-OH [compound 174], Ac-LKWQEMGYIFYPLRKR-NH2 [compound 113] is higher in “Free Fatty Acid Levels in 3T3-L1 Adipocytes Expressed as a Percent of Isoproterenol Control: Percent of Control Value”: 38.8% for the first, 82.8% for the second.

Compared with `CC[C@H](C)[C@H](NC(=O)[C@H](Cc1ccc(O)cc1)NC(=O)CNC(=O)[C@H](CCSC)NC(=O)[C@H](CCC(=O)O)NC(=O)[C@H](CCC(N)=O)NC(=O)[C@@H](C)NC(=O)[C@H](CCCNC(=N)N)NC(=O)[C@@H](N)CCSC)C(=O)N[C@@H](Cc1ccccc1)C(=O)N[C@@H](Cc1ccc(O)cc1)C(=O)N1CCC[C@H]1C(=O)N[C@@H](CCCNC(=N)N)C(=O)N[C@@H](CCCCN)C(=O)N[C@@H](CC(C)C)C(=O)N[C@@H](CCCNC(=N)N)C(=O)O` [compound 138] (HELM PEPTIDE1{M.R.[dA].Q.E.M.G.Y.I.F.Y.P.R.K.L.R}$$$$V2.0), `CC[C@H](C)[C@H](NC(=O)[C@H](Cc1ccc(O)cc1)NC(=O)CNC(=O)[C@H](CCSC)NC(=O)[C@H](CCC(=O)O)NC(=O)[C@H](CCC(N)=O)NC(=O)[C@H](Cc1c[nH]c2ccccc12)NC(=O)[C@H](CCCNC(=N)N)NC(=O)[C@@H](N)CCSC)C(=O)N[C@@H](Cc1ccccc1)C(=O)N[C@@H](Cc1ccc(O)cc1)C(=O)N1CCC[C@H]1C(=O)N[C@@H](CCCNC(=N)N)C(=O)N[C@@H](CCCCN)C(=O)N[C@H](C)C(=O)N[C@@H](CCCNC(=N)N)C(=O)O` [compound 150] (HELM PEPTIDE1{M.R.W.Q.E.M.G.Y.I.F.Y.P.R.K.[dA].R}$$$$V2.0) is lower in “Free Fatty Acid Levels in 3T3-L1 Adipocytes Expressed as a Percent of Isoproterenol Control: Percent of Control Value”: 71.5% for the first, 53.9% for the second.
